Like-named read-outs stand apart in the source and are kept apart here. Some results are limits rather than exact numbers.

A word on the Ki: it is the dissociation constant of the complex between target and ligand, obtained from inhibition or displacement.

Assay [1] has as its target human 5-HT2a receptors (Homo sapiens, UniProt P28223). In words: Competition radioligand binding, h5-HT2a ([3H]Ketanserin).
Description: The 5-HT receptor binding properties of the compounds are identified by competitive radioligand binding assays wherein membranes prepared from transfected cells expressing the 5-HT receptor subtype of interest. “Binding constants” refers herein to Ki values measured by inhibition of the binding of radiolabelled ligands that are selective for the 5-HT receptor type being studied.
(§1) Cell pellets were homogenized in approximately 50 mL of homogenization buffer (buffer A) containing: 50 mM Tris (pH 7.4), 2 mM EGTA, 0.32 M sucrose, 10 μM PMSF, 1 μg/mL leupeptin, 5 μg/mL Pepstatin A, and 5 μg/mL aprotinin using an UltraTurax homogenizer (Tekmar Company, Cincinnati, Ohio) at 80% maximum setting three times for 10 sec. Cell pellets were centrifuged at 4° C. at 1,500×g for 10 min in a Beckman GS-6R centrifuge. Pellets were resuspended in buffer A, homogenized and centrifuged as described above. Pooled supernatants were transferred to centrifuge bottles and centrifuged at 4° C. at 20,000×g for 30 min in a Beckman J2-HS centrifuge. Cell pellets were resuspended in buffer A and were centrifuged at 4° C. at 20,000×g for 30 min. Cell pellets were resuspended in buffer A and stored at −70° C. in aliquots of 2.5 mg/mL total membrane protein. Total membrane protein was assessed utilizing a BCA kit (Pierce; Rockford, Ill.).
(§2) Filters were washed three times with ice-cold phosphate-buffered saline (PBS) wash buffer containing 50 mM NaPO4 (pH 7.4), 0.9% NaCl, 2 mM MgCl2 and 0.02% NaN3. The filters were then counted using liquid scintillation in a Packard Topcount scintillation counter.
(§3) Data Analysis: Radioligand binding experiments were analyzed with Prism™ (GraphPad, San Diego, Calif.), a computer graphics and statistics program. IC50 values and Hill slopes for compounds were generated by nonlinear regression using Prism™.
For assay [2], the target named is human D2S dopamine (hD2S-DA) receptors (Homo sapiens, UniProt P14416). Put plainly: Competition radioligand binding, hD2s DA ([3H]Spiperone).
Sequence of human D2S dopamine (hD2S-DA) receptors (P14416 1-414 isoform P14416-2): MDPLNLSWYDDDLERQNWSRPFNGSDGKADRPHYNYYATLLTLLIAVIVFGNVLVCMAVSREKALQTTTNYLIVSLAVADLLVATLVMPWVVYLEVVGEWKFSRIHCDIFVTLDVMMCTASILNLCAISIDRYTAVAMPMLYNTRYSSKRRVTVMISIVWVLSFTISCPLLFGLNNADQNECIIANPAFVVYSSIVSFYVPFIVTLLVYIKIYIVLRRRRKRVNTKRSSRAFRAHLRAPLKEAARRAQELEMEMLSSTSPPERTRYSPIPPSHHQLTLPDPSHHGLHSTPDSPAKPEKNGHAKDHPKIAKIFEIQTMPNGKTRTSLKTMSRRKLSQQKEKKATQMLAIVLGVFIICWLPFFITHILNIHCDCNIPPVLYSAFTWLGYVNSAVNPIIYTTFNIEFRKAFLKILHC
Description: as §1, §2, §3
The target in assay [3] is T1, human 5-HT7B (h5-HT7b) receptors (Homo sapiens, UniProt P34969).
T1 construct: expressed in transfected cells
T1 sequence (P34969 1-432 limits assumed): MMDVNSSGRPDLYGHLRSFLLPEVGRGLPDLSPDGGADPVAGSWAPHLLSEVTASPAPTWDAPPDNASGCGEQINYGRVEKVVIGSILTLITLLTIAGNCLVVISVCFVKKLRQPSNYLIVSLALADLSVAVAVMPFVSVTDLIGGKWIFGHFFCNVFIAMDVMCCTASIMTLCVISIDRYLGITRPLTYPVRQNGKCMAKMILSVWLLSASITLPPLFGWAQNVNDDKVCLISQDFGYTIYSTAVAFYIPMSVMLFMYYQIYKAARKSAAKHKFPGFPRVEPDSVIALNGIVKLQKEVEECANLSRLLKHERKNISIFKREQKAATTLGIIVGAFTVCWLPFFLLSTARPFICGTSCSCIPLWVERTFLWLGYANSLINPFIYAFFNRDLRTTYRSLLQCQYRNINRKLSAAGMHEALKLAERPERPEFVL
Put plainly: Competition radioligand binding, h5-HT7b ([3H]5-CT). The note with it: membranes of HEK 293 cells, 2 hr 37° C., read-out: Ki (nM) 5-HT7.

The target of assay [4] is T2, human 5-HT6 (h5-HT6) receptors (Homo sapiens, UniProt P50406).
T2 construct: purchased Receptor Biology, Inc. (Beltsville, Md.); host or cells: HEK-293 cells
T2 sequence (P50406 whole entry): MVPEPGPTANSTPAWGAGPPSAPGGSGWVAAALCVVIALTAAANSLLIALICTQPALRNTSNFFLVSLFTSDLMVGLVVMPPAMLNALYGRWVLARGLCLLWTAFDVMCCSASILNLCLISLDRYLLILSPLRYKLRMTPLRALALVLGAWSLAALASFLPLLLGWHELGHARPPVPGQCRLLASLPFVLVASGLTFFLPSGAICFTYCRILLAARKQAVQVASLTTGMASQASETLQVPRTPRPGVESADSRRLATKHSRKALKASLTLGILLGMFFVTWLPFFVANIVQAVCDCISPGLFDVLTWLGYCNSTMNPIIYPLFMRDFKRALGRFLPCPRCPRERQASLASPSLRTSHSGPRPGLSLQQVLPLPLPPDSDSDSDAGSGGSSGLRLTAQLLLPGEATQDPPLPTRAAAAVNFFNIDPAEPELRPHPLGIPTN
In words: Competition radioligand binding, h5-HT6 ([3H]LSD). The note with it: membranes of HEK-293 cells, 1 hr RT.

Assay [5] addresses T3, human 5-HT1a receptors (Homo sapiens, UniProt P08908).
T3 construct: expressed in transfected cells; host or cells: CHO K1 cells
T3 sequence (P08908 1-422): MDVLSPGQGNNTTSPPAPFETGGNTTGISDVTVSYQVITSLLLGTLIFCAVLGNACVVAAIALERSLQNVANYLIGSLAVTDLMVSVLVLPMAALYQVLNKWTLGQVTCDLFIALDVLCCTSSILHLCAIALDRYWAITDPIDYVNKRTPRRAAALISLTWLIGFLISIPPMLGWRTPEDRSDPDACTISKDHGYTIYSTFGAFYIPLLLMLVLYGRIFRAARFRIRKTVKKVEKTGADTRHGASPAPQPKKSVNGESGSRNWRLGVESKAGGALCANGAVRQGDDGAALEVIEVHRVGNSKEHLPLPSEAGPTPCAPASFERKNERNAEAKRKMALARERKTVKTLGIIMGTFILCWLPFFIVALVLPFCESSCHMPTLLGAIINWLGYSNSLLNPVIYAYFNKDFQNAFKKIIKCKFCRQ
In words: Competition radioligand binding, h5-HT1a ([3H]5-CT). The note with it: membranes of CHO K1 cells, 1 hr RT.

Sequence of human 5-HT2a receptors (P28223 whole entry): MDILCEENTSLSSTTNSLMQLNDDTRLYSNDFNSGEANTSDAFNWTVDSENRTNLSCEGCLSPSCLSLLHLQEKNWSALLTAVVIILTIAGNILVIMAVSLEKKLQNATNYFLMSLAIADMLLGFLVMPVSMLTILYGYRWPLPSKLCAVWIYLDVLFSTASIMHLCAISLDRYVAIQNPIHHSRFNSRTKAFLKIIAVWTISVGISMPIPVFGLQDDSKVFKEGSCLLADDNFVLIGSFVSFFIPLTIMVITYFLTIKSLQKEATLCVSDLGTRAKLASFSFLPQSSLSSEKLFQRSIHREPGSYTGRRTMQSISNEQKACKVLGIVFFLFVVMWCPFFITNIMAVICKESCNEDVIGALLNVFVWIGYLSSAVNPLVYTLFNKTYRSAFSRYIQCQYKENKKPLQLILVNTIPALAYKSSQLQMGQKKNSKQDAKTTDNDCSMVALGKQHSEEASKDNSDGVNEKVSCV

Regarding `CN1CCCC1CCN(Cc1cccc(O)c1)Cc1cccc(O)c1` (racemic) [Example 3], the Ki was 2000 nM in assay [1], > 2500 nM in assay [2], 49 nM in assay [3] and 2640 nM in assay [4].

As for `Cc1ccc(CN(CCC2CCCN2C)Cc2ccc(C)cc2)cc1` (racemic) [Example 4], the Ki in assay [1] came out at 20 nM; in assay [2], 110 nM; in assay [3] it was 9.9 nM; in assay [4], 41 nM.

For `CN1CCCC1CCN(Cc1ccc(Cl)cc1)Cc1ccc(Cl)cc1` (racemic) [Example 5], the Ki in assay [1] is 39 nM; in assay [3] it was 4.7 nM; in assay [4], 42 nM; in assay [5], 540 nM.

For `CN1CCCC1CCN(CCc1ccccc1)CCc1ccccc1` (racemic) [Example 8], the Ki in assay [3] was 3200 nM.

With `CN1CCCC1CCN(Cc1ccccc1)Cc1ccccc1` (racemic) [Example 12], the Ki was found to be 360 nM in assay [2], 24 nM in assay [3] and 74 nM in assay [4].

Turning to `CN1CCC[C@H]1CCN(Cc1cccc(O)c1)Cc1cccc(O)c1` [Example 2, (S)-Di-(3-hydroxybenzyl)-2-aminoethyl-N-methylpyrrolidine], the Ki was 500 nM in assay [1] (read-out: Ki (nM) 5-HT2A, membranes of CHO K1 cells, [3H]Ketanserin, 1 hr 37° C.); > 2500 nM in assay [2] (read-out: Ki (nM) D2, membranes of A9 L cells, [3H]Spiperone, 2 hr RT); 9.7 nM in assay [3]; 640 nM in assay [4]; 3500 nM in assay [5].

In the case of `Cc1ccc(CN(CC[C@H]2CCCN2C)Cc2ccc(C)cc2)cc1` [Example 6], the Ki is 29 nM in assay [1]; 200 nM in assay [2]; 80 nM in assay [3]; 53 nM in assay [4]; 1780 nM in assay [5].

As for `Cc1ccc(CN(CC[C@@H]2CCCN2C)Cc2ccc(C)cc2)cc1` [Example 7], the Ki in assay [1] came out at 17 nM; in assay [2], 221 nM; in assay [3] it was 2.1 nM; in assay [4] it was 63 nM; in assay [5], 2850 nM.

Consider `CN1CCC[C@H]1CCN(Cc1cccc(C(N)=O)c1)Cc1cccc(C(N)=O)c1` [Example 9], for which the Ki in assay [3] amounted to 5100 nM.

On to `CN1CCC[C@@H]1CCN(Cc1cccc(O)c1)Cc1cccc(O)c1` [Example 10], for which the Ki in assay [3] worked out at 1000 nM.

For the compound `CN1CCC[C@H]1CCN(Cc1ccc(O)cc1)Cc1cccc(O)c1` [Example 20], the Ki in assay [1] is 540 nM; in assay [2], > 2500 nM; in assay [3], 8.8 nM; in assay [4], 880 nM; in assay [5] it was > 4000 nM.

For `CN1CCCC1CCN(Cc1ccccc1)Cc1ccc(F)cc1` (centres unmarked) [Example 26], the results for the Ki in assay [2], in assay [3] and in assay [4] were 400 nM, 18 nM and 20 nM, respectively.

For `CSc1ccc(CN(CCC2CCCN2C)Cc2ccccc2)cc1` (centres unmarked) [Example 27], the Ki in assay [3] amounted to 150 nM.

As for `CN1CCCC1CCN(Cc1ccccc1)Cc1ccc(C(C)(C)C)cc1` (centres unmarked) [Example 31], the Ki in assay [1] was found to be 130 nM; in assay [2], 1210 nM; in assay [3] it was 66 nM; in assay [4] it was 45 nM.

Consider `CC(C)c1ccc(CN(CCC2CCCN2C)Cc2ccccc2)cc1` (centres unmarked) [Example 32], for which the Ki in assay [1] was 11 nM; in assay [2], 850 nM; in assay [3], 36 nM; in assay [4], 71 nM.

Turning to `CN1CCC[C@H]1CCN(CCc1ccccc1)Cc1ccc(Cl)cc1` [Example 38], the Ki in assay [3] was determined as 200 nM.

In the case of `CN1CCC[C@H]1CCN(Cc1ccc(Cl)cc1)CC1CC=CCC1` (some centres unmarked) [Example 43], in assay [3], the inhibition constant (Ki) is 180 nM.

As to `CN1CCC[C@H]1CCN(Cc1ccc(Cl)cc1)Cc1ccccc1Cl` [Example 44], the Ki in assay [3] worked out at 260 nM.

As for `CN1CCC[C@H]1CCN(Cc1ccc(Cl)cc1)Cc1ccc(O)c([N+](=O)[O-])c1` [Example 51], the inhibitory constant (Ki) in assay [3] was 200 nM.

As for `C[C@H](CN(CC[C@@H]1CCCN1C)Cc1ccc(Cl)cc1)c1ccccc1` [Example 53], the inhibitory constant (Ki) in assay [3] was determined as 161 nM.

Consider `CN1CCC[C@H]1CN(Cc1ccccc1)Cc1ccccc1` [Example 55, (S)-Di-(benzyl)-2-aminomethyl-N-methylpyrrolidine], for which, in assay [3], the Ki stood at 170 nM.

Source of the values: patent US20060063932A1, “Aminoalkylpyrrolidine serotonin receptor ligands and compositions, their pharmaceutical uses, and methods for their synthesis” (priority 2000, published 2006).
